# System: total splenocytes
# Experiment: T cell subsets in total splenocytes 7 days after DC vaccination, flow cytometry
# Type: in vivo, C57BL/6 mice
# Settings: by viral treatment, peptides pooled
# Experimental: To determine the effect of SHP-1 inhibition on the initiation of T cell responses, BMDCs were cultured and CD11c^+ MACS purified as described above. […] Following peptide loading DCs were left untreated or transduced with one of 3 different adenoviral vectors: 1) Ad5-SHP-1-shRNA; 2) Ad5-scrambled-shRNA; or 3) Ad5-CMV-empty, an adenovirus carrying a CMV promoter expression vector but no insert. […] Using all combinations of peptide and virus treatment yielded 9 experimental vaccines and one no vaccine control. Vaccines (2×10^6 DCs) were injected i.p. into wt C57BL/6 mice. Seven days following vaccination mice were sacrificed and total splenocytes were analyzed by multi-color flow cytometry for the expression of several T cell subsets. CD3^+ CD8^+IFNγ^+ cells were characterized as CTL effectors, CD3^+ CD4^+IFNγ^+ cells were characterized as Th1 helper T cells, and CD4^+ FOXP3^+ cells were characterized as Treg cells. Flow cytometry data were analyzed by one-way analysis of variance (ANOVA) and Tukey-Kramer HSD multiple comparisons test for percentage of cells falling within each population following treatment. Cells were stained with anti-CD3, anti-CD8 and anti IFNγ to differentiate CD8^+ effectors and CD4^+ Th1 T cell skewing or anti-CD4 and anti-FOXP3 to determine Tregs. To determine if there was a peptide specific effects between the 3 different tumor antigens, viral treatments were pooled for each peptide exposure. Data represent the averages 6 mice per peptide treatment group and 2 mice in the no treatment control group. No significant differences were seen between peptides in the induction of Tregs or CD8^+ effector cells.
# (§1) Following peptide loading DCs were left untreated or transduced with one of 3 different adenoviral vectors: 1) Ad5-SHP-1-shRNA; 2) Ad5-scrambled-shRNA; or 3) Ad5-CMV-empty, an adenovirus carrying a CMV promoter expression vector but no insert. Vaccines were injected i.p. into wt C57BL/6 mice and T cell skewing analyzed 7 days later by flow cytometry from total splenocytes. Cells were stained with anti-CD3, anti-CD8 and anti IFNγ for effector and Th1 cells or anti-CD4 and anti-FOXP3 for Tregs. For the peptide specific analysis viral treatments were pooled for each peptide exposure. Data represent the averages 6 mice per peptide treatment and two mice in the no treatment control group. The green diamonds represent the mean and 95% confidence interval for each group from the ANOVA. The black line is the mean of means for the study and red asterisk (*) indicates significant differences (p<0.05 by Tukey-Kramer HSD multiple comparisons test).
# as §1, with “the SHP-1” for “the peptide”, “each viral treatment.” for “each peptide exposure.”, “and 2” for “and two”, “ANOVA. […]” for “ANOVA. The black line is the mean of means for the study and red asterisk (*) indicates significant differences (p<0.05 by Tukey-Kramer HSD multiple comparisons test).”
# [1] = 2×10^6 DCs i.p., day 7, vs no vaccine control
sequence,measurement,setting,value
CACCGGAGCATGACACAGCAGAATACGAATATTCTGCTGTGTCATGCTCC (chemistry not given here) [Ad5-SHP-1-shRNA],proportion of CD4+ Th1 skewed T cells (CD3+CD4+IFNγ+),[1],significantly higher proportion
same,proportion of CD8+ effector cells (CD3+CD8+IFNγ+),[1],significantly higher proportion
same,percentage of Tregs (CD4+FOXP3+),"day 7, vs empty viral control",significantly decreased the percentage of Tregs
